# Biological target: HDAC1 (Homo sapiens, UniProt Q13547)
# Test: HDAC1 colorimetric assay, substrate Boc-Lys(Ac)-AMC
# Conditions: IC50 for HDAC1, FIG. 3; 50 μM Boc-Lys(Ac)-AMC
# Protocol: 1 nM of HDAC1 was incubated with increasing concentrations of the respective compound for 30 minutes at 30° C. The reaction was initiated by addition of 50 μM of the substrate Boc-Lys(Ac)-AMC. After an incubation of 60 minutes the reaction was stopped by addition of 20 μM SAHA and the deacetylated substrate was converted into a fluorescent product by the addition of trypsin.
# HDAC1, sequence (Q13547 whole entry): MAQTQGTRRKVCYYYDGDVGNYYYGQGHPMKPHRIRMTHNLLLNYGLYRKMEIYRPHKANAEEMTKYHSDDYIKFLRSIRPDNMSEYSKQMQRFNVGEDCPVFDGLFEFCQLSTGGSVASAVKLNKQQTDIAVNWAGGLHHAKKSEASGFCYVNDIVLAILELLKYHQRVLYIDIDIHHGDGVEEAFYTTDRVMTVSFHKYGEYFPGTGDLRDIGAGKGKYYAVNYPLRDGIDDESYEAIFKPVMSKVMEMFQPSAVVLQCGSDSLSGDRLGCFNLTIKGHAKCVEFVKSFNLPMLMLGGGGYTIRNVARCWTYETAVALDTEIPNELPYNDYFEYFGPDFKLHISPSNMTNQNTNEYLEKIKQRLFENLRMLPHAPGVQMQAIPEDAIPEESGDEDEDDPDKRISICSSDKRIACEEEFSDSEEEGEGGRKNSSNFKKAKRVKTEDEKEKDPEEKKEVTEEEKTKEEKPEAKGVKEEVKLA
row,IC50,Compound
1,7.9 µM,"N=C1Sc2ccc(Cl)cc2C2=NCCCN12 [Compound 13e, 10-Chloro-3,4-Dihydrobenzo[e]Pyrimido[1,2-c][1,3]Thiazin-6(2H)-Imine]"

# System: uterine leiomyosarcoma cell line SKUT-1
# Test: Growth inhibition of cancer cell line, resazurin assay
# Type: cell-based, Human
# Conditions: Homo sapiens, SK-UT-1; Table 2, resazurin assay
row,GI50,Compound
1,5.4 ± 0.4 µM,"O=C(CCCCCCC(=O)Nc1ccccc1)NO [Compound 1, Vorinostat, reference compound]"
2,> 1000 µM,"N=C1Sc2ccc(Cl)cc2C2=NCCCN12 [Compound 13e, 10-Chloro-3,4-Dihydrobenzo[e]Pyrimido[1,2-c][1,3]Thiazin-6(2H)-Imine]"

# Same assay, conditions: Table 2, resazurin assay; read-out: GI50 SK-UT-1
row,Compound,GI50
1,"COc1ccc(Cn2ccc3ccc(C(=O)NO)cc32)cc1 [Compound 6, PCI-34051, reference compound]",136 ± 62 µM

# Biological target: HDAC3 (Homo sapiens, UniProt O15379)
# Sequence (O15379 whole entry): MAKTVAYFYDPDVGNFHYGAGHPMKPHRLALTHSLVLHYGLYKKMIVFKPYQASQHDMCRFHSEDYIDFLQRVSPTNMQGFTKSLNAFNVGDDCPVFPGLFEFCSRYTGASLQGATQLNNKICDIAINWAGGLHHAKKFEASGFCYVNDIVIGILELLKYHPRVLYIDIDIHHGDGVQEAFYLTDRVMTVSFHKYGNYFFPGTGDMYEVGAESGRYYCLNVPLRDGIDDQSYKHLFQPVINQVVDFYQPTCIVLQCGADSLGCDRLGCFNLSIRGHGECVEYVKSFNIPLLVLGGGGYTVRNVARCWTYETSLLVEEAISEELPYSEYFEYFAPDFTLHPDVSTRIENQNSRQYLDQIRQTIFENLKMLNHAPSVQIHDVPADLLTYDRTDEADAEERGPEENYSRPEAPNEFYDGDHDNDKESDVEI
# Sequence (Q9Y618 395-489 partner limits assumed): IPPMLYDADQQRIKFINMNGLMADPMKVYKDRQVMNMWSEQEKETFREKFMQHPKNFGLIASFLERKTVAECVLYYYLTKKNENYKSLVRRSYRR
# Test: HDAC3 colorimetric assay, substrate Boc-Lys(Ac)-AMC
# Type: biochemical
# Conditions: Table 1
row,IC50,Compound
1,20 ± 1 µM,"N=C1Sc2ccc(Cl)cc2C2=NCCCN12 [Compound 13e, 10-Chloro-3,4-Dihydrobenzo[e]Pyrimido[1,2-c][1,3]Thiazin-6(2H)-Imine]"

# Biological target: T1, HDAC6 (Homo sapiens, UniProt Q9UBN7)
# T1 sequence (Q9UBN7 1-1215): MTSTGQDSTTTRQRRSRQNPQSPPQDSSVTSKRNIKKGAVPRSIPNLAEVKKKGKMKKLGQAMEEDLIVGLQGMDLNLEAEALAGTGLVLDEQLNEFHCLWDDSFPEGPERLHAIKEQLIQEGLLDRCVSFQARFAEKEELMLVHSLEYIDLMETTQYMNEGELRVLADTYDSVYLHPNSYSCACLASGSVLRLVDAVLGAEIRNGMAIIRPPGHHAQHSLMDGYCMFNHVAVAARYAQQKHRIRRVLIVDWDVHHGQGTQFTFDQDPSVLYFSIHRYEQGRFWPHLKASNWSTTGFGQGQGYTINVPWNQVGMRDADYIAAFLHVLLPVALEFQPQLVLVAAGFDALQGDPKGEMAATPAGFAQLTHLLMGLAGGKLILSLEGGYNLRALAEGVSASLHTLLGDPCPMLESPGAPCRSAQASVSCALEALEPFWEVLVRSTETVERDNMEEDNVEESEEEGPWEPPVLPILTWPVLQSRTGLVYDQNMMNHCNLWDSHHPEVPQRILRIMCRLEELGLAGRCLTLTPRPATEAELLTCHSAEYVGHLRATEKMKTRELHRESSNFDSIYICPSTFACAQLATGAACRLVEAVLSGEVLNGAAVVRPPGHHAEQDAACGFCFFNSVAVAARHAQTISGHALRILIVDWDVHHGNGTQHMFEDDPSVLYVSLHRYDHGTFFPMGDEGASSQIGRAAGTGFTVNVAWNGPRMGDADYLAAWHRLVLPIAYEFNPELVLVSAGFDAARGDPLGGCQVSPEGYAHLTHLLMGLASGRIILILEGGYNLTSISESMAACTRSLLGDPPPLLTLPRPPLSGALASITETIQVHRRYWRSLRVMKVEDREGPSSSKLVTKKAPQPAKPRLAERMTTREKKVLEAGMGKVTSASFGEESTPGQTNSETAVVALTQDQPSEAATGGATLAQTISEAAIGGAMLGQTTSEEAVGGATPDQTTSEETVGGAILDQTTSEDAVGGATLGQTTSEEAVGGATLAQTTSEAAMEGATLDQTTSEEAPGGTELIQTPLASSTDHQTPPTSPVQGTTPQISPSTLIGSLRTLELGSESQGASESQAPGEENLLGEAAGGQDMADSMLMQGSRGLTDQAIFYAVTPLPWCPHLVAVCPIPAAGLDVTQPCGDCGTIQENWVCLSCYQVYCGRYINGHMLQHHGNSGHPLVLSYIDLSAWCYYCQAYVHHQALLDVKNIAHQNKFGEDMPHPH
# Test: HDAC6 colorimetric assay, substrate Boc-Lys(Ac)-AMC
# Type: biochemical
# Conditions: Table 1; read-out: IC50 HDAC6
row,IC50,Compound
1,1.2 ± 0.4 µM,"N=C1Sc2ccc(Cl)cc2C2=NCCCN12 [Compound 13e, 10-Chloro-3,4-Dihydrobenzo[e]Pyrimido[1,2-c][1,3]Thiazin-6(2H)-Imine]"

# System: T cell leukemia cell line JURKAT
# Test: Growth inhibition of cancer cell line, resazurin assay
# Conditions: Homo sapiens, Jurkat, read-out: GI50 JURKAT
# Protocol: The following tumor cell lines were used: • Human uterine leiomyosarcoma cell line SKUT-1 (ATCC® HTB114™) • Human T cell leukemia cell line JURKAT (ATCC® TIB152™) • Human breast cancer cell line MCF-7 (ATCC® HTB22™)
# Cells were cultured in Dulbecco's modified Eagle's medium (DMEM) supplemented with 10% FCS.
row,GI50,Compound
1,3.7 ± 0.4 µM,"O=C(CCCCCCC(=O)Nc1ccccc1)NO [Compound 1, Vorinostat, reference compound]"
2,56 ± 9 µM,"N=C1Sc2ccc(Cl)cc2C2=NCCCN12 [Compound 13e, 10-Chloro-3,4-Dihydrobenzo[e]Pyrimido[1,2-c][1,3]Thiazin-6(2H)-Imine]"

# Same assay, conditions: read-out: GI50 JURKAT; Table 2, resazurin assay
row,Compound,GI50
1,"COc1ccc(Cn2ccc3ccc(C(=O)NO)cc32)cc1 [Compound 6, PCI-34051, reference compound]",40 ± 4 µM

# Biological target: HDAC4 (Homo sapiens, UniProt P56524)
# Sequence (P56524 whole entry): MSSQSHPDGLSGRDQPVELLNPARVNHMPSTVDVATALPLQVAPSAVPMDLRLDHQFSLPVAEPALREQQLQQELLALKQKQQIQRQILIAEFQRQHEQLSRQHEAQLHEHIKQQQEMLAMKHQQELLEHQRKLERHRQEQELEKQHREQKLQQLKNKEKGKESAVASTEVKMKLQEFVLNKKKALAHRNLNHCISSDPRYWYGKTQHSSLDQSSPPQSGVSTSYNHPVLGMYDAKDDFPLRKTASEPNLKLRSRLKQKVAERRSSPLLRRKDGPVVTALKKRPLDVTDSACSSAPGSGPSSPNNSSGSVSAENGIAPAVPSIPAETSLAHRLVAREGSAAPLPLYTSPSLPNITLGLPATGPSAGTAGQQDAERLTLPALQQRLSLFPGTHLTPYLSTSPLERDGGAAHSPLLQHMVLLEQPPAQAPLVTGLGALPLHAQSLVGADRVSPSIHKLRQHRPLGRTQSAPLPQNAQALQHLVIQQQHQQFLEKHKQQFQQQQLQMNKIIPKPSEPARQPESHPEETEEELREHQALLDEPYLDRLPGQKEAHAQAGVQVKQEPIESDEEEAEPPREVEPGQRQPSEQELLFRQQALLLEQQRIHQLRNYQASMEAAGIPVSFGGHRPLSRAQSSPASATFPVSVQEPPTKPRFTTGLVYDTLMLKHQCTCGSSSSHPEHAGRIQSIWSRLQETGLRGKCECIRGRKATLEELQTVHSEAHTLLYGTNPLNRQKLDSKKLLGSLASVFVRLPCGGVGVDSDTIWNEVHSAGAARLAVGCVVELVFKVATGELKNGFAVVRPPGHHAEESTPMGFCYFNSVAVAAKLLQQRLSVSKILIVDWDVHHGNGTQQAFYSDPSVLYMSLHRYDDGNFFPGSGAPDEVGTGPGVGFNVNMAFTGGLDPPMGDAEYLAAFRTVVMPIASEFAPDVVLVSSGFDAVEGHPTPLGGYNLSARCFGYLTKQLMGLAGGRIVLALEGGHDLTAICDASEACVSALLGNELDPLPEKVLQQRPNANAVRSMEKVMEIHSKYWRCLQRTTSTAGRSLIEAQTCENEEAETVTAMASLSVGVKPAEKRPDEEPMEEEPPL
# Test: not given
# Type: biochemical
# Conditions: Table 1
row,IC50,Compound
1,5.7 ± 0.3 µM,"N=C1Sc2ccc(Cl)cc2C2=NCCCN12 [Compound 13e, 10-Chloro-3,4-Dihydrobenzo[e]Pyrimido[1,2-c][1,3]Thiazin-6(2H)-Imine]"

# Biological target: T2, HDAC7 (Homo sapiens, UniProt Q8WUI4)
# T2 sequence (Q8WUI4 1-952): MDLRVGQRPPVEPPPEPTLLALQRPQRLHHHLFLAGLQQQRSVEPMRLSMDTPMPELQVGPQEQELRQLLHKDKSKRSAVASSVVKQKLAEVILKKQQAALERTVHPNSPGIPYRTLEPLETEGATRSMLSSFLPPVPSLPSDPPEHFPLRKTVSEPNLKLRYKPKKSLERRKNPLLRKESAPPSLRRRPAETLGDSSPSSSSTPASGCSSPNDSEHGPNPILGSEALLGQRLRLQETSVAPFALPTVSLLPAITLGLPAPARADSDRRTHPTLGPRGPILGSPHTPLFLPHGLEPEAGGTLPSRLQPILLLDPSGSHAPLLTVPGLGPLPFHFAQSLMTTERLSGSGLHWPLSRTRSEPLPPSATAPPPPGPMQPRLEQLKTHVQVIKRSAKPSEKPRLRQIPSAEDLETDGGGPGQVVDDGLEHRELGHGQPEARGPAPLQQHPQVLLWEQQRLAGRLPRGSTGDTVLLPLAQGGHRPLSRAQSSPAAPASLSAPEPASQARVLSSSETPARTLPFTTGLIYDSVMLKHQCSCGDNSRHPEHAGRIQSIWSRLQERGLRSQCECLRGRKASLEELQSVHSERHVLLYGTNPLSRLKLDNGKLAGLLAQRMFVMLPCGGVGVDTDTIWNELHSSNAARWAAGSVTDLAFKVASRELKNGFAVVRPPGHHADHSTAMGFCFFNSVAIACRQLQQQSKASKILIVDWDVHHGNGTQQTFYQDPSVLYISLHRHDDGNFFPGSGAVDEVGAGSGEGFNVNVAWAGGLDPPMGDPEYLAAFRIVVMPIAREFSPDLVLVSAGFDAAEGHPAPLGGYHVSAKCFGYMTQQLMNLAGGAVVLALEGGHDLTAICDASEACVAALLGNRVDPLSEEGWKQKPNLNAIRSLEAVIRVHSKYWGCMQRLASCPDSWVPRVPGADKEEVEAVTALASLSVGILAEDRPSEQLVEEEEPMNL
# Test: HDAC7 colorimetric assay, substrate Boc-Lys(TFA)-AMC
# Conditions: IC50 for HDAC7, FIG. 3; 20 μM Boc-Lys(TFA)-AMC
row,IC50,Compound
1,0.08 µM,"N=C1Sc2ccc(Cl)cc2C2=NCCCN12 [Compound 13e, 10-Chloro-3,4-Dihydrobenzo[e]Pyrimido[1,2-c][1,3]Thiazin-6(2H)-Imine]"

# System: breast cancer cell line MCF-7
# Test: Growth inhibition of cancer cell line, resazurin assay
# Type: cell-based, Human
# Conditions: Homo sapiens, MCF7; Table 2, resazurin assay
row,GI50,Compound
1,3.7 ± 0.4 µM,"O=C(CCCCCCC(=O)Nc1ccccc1)NO [Compound 1, Vorinostat, reference compound]"
2,> 1000 µM,"N=C1Sc2ccc(Cl)cc2C2=NCCCN12 [Compound 13e, 10-Chloro-3,4-Dihydrobenzo[e]Pyrimido[1,2-c][1,3]Thiazin-6(2H)-Imine]"

# Same assay, conditions: Table 2, resazurin assay; read-out: GI50 MCF7
row,Compound,GI50
1,"COc1ccc(Cn2ccc3ccc(C(=O)NO)cc32)cc1 [Compound 6, PCI-34051, reference compound]",65 ± 18 µM

# Biological target: HDAC2 (Homo sapiens, UniProt Q92769)
# Sequence (Q92769 whole entry): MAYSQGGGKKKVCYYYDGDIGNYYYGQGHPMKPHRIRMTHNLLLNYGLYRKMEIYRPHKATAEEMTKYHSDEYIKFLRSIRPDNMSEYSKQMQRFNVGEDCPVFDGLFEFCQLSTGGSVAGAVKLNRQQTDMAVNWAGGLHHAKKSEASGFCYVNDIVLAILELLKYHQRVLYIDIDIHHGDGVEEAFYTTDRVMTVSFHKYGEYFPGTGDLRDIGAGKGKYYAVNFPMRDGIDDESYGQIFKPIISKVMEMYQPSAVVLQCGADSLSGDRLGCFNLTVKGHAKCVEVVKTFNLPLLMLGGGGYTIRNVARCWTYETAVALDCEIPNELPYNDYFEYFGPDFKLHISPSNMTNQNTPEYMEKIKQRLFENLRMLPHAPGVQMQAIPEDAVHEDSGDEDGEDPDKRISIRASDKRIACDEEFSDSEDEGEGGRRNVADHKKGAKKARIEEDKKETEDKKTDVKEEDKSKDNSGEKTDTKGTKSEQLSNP
# Test: HDAC2 colorimetric assay, substrate Boc-Lys(Ac)-AMC
# Type: biochemical
# Conditions: Table 1
row,IC50,Compound
1,> 50 µM,"N=C1Sc2ccc(Cl)cc2C2=NCCCN12 [Compound 13e, 10-Chloro-3,4-Dihydrobenzo[e]Pyrimido[1,2-c][1,3]Thiazin-6(2H)-Imine]"

# Biological target: HDAC5 (Homo sapiens, UniProt Q9UQL6)
# Sequence (Q9UQL6 whole entry): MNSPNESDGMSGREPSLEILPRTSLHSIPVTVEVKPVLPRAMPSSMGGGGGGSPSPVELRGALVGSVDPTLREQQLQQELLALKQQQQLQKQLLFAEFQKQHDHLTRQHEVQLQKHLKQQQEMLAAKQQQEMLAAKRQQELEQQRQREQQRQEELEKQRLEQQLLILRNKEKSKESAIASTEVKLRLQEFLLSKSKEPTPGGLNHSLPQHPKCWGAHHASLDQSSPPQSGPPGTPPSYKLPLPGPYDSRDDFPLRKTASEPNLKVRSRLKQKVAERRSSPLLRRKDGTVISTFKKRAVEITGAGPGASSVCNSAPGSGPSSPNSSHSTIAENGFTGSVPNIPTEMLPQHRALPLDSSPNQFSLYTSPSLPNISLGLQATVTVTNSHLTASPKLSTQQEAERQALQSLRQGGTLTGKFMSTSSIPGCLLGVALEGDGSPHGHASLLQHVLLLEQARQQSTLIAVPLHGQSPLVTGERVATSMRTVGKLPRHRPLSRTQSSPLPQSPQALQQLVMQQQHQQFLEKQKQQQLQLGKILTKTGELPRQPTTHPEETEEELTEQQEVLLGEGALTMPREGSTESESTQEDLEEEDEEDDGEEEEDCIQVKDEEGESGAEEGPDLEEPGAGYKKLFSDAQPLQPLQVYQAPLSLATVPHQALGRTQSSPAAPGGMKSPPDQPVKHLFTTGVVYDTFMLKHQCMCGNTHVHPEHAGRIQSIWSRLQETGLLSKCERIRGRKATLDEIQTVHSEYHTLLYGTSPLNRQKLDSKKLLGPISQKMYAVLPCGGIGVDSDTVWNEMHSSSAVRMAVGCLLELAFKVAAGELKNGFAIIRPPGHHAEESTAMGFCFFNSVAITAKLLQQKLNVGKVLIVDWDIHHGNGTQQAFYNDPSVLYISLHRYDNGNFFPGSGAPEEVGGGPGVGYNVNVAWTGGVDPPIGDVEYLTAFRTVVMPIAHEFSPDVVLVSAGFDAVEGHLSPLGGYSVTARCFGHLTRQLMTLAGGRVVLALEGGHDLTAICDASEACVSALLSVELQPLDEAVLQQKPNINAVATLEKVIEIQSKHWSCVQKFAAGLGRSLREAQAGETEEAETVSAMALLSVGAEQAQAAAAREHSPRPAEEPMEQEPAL
# Test: HDAC5 colorimetric assay, substrate Boc-Lys(TFA)-AMC
# Conditions: not given
row,IC50,Compound
1,1 µM,"N=C1Sc2ccc(Cl)cc2C2=NCCCN12 [Compound 13e, 10-Chloro-3,4-Dihydrobenzo[e]Pyrimido[1,2-c][1,3]Thiazin-6(2H)-Imine]"

# Biological target: T3, HDAC8 (Homo sapiens, UniProt Q9BY41)
# T3 sequence (Q9BY41 1-377): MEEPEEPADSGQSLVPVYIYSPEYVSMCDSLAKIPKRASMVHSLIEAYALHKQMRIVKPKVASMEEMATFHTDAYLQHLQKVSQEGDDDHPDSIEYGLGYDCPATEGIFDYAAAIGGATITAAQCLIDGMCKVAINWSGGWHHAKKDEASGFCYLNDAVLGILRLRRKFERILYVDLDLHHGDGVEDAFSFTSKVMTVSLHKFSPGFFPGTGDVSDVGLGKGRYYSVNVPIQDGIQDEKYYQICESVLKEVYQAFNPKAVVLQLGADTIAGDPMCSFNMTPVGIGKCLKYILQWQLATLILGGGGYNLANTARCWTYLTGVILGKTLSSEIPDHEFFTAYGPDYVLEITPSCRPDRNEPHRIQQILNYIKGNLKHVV
# Test: HDAC8 colorimetric assay, substrate Boc-Lys(TFA)-AMC
# Conditions: IC50 HDAC8, Table 1
# Protocol: 1 nM of HDAC4 was incubated with increasing concentrations of the respective compound for 30 minutes at 30° C. The reaction was initiated by addition of 20 μM of the substrate Boc-Lys(trifluoracetyl)-AMC. After an incubation of 60 minutes the reaction was stopped by addition of 20 μM SAHA and the deacetylated substrate was converted into a fluorescent product by the addition of trypsin.
row,IC50,Compound
1,0.0059 ± 0.0003 µM,"N=C1Sc2ccc(Cl)cc2C2=NCCCN12 [Compound 13e, 10-Chloro-3,4-Dihydrobenzo[e]Pyrimido[1,2-c][1,3]Thiazin-6(2H)-Imine]"

# Same assay, conditions: IC50 for HDAC8, FIG. 3; 20 μM Boc-Lys(TFA)-AMC
row,IC50,Compound
1,0.0055 µM,"N=C1Sc2ccc(Cl)cc2C2=NCCCN12 [Compound 13e, 10-Chloro-3,4-Dihydrobenzo[e]Pyrimido[1,2-c][1,3]Thiazin-6(2H)-Imine]"
